According to publication PMC7549214 (Malaria Journal, 2020):
Read-outs that look alike come from different tables or passages of the source.

How the values were obtained:
CYP 2D6 = CYP 2D6 (Homo sapiens, UniProt P10635); assay: CYP inhibition; format: in vitro ADME
[1] = system: P. falciparum Pf3D7^0087/N9; assay: Therapeutic efficacy in SCID mouse model of human falciparum malaria; format: in vivo, Plasmodium falciparum in NODscidIL2Rγ^null mice; settings: for Parasitaemia after 4 days of administration: intraperitoneally, vehicle control 8.43%; for Parasitaemia: oral, vehicle-treated group 7.69%, n = 2
Experimental: For the dose–response study, 50 mg of the compound was used in quintuplicate. Chloroquine (Sigma-Aldrich C6628) was used as the standard drug. The volume of 10 mL/kg was used for administration. Briefly, at day 0, in vitro cultures with approximately 2–5% parasitaemia were taken and diluted in culture medium to 2 × 10^7 parasitized erythrocytes per 0.1 ml. This suspension was injected iv into experimental groups and a control group of n = 2 mice. From day 3 to 6 days post-infection, the experimental groups were treated with a single daily dose by the oral (po) route. Other routes, such as intramuscular and subcutaneous, were also tested using the same protocol. The drug concentration was adjusted in a way to administer 10 ml/kg. […] At 7th day post-infection, 2 μl tail blood was taken. The haematocrit was determined by FACS and parasitaemia by microscopy on > 10,000 red blood cells.
The difference of the mean infection rate of the control group (= 100%) to the test group was calculated and expressed as per cent reduction. […] The results were expressed as a reduction of parasitaemia at day 7 in % as compared to the untreated control group. Values are expressed as mean ± SD.

PfHDAC1 = target: T1, PfHDAC1 (Plasmodium falciparum, UniProt Q7K6A1); assay: PfHDAC1 fluorescent activity assay; format: biochemical
T1 construct: His-tag; FLAG-tag; purchased BPS Bioscience

Microsomal stability [2] = format: in vitro ADME, mouse; settings: MLM, Test Conc. 10 µM
hERG = hERG (Homo sapiens, UniProt Q12809); assay: hERG binding
HepG2 = assay: Cytotoxicity; format: cell-based
in vitro [3] = format: in vitro ADME; settings: mouse, plasma
[4] = system: Dd2 DDD107498 (PfeEF2 Y186N); assay: microbe, parasite or virus in culture; format: cell-based; settings: Plasmodium falciparum
[5] = system: cytochrome P450 (CYP) isoforms (any of those tested); assay: CYP inhibition, isoforms tested (summary); format: in vitro ADME; settings: any of the CYP isoforms tested
[6] = Single dose pharmacokinetics in SCID mice; format: in vivo; settings: female, C.B-17/IcrHsd-Prkdc^scidLyst^bg (SCID), mouse, plasma; infected SCID mice, oral, 50 mg/Kg
Experimental: (§1) Female […] mice (n = 3) aged 7-8 weeks and weighing around 20 to 22 g were used for experimentation after a minimum 7 days of acclimation. Male BALB/c mice (n = 3) aged 8-10 weeks and weighing around 20 to 22 g were also used for experimentation after a minimum 7 days of acclimation. […] Feed was offered 2 h post-dose. Under mild isofluorane […], blood samples were collected by retro-orbital route into labelled centrifuge tubes containing K2EDTA anticoagulant at a concentration of 2 mg/mL of blood during the next 24 h post-dose. Collected blood samples were centrifuged at 4000 rpm for 10 min, and harvested plasma samples were stored at - 80 °C until analysis.

[7] = Single dose pharmacokinetics in Balb/C mice; format: in vivo; settings: normal Balb/C mice; for half-life / AUC(0-t) / Cmax / Tmax: male, mouse, plasma; for half-life: BALB/c, 50 mg/kg
Experimental: as §1

CYP 3A4 = CYP 3A4 (Homo sapiens, UniProt P08684); assay: CYP inhibition; format: in vitro ADME
[8] = system: Plasmodium falciparum 3D7; assay: Plasmodium falciparum asexual blood-stage (ABS) assay; format: cell-based; settings: Plasmodium falciparum, 3D7
Experimental: Plasmodium falciparum 3D7 strain was used for the P. falciparum asexual blood-stage (ABS) assay, for which the cells were resuscitated from the stabilate and maintained at 5% haematocrit. Red blood cells obtained from the hospital were used to maintain the culture at 1% parasitaemia while screening.
Plasmodium falciparum 3D7 cells were used as a target strain for the assay. Mefloquine (Sigma-Aldrich) was used as a standard inhibitor. At day 1, […] of 10 mM mefloquine was added to columns 12 and 24 of the sterile 384-well black, clear-bottom, cell culture assay plates followed by compound curves which were added using Echo. The P. falciparum 3D7 cells were counted and 20 ml of culture was prepared at 5% haematocrit, 0.3% parasitaemia (as one batch, i.e., 12 plates, prepare 260 ml, to allow for WellMate prime volume) for each plate. From this, 50 µl of culture was added to all wells on all plates using WellMate with small bore tubing on full (S-1) speed. The plates were placed on the bottom shelf of the incubator, with a maximum stack height of 4 plates, preferring the front of the shelf and were incubated for 72 h at 37 °C in an atmosphere of special gas mix (1% O2, 3% CO2, balance N2).
. Ten μl of the prepared buffer was added to each well on each of the assay plates and incubated overnight in the dark at room temperature. The plates were read on Victor plate reader using ‘384sybrgreen’ protocol (excitation 485 nm, emission 528 nm) after which the plate contents were aspirated into 5% Virkon, and disposed of after autoclaving. Percentage inhibition for each test compound was calculated using the following equation: %Inhibition=100-TEST COMPOUND-BLANK/NO INHIBITION-BLANK∗100)
EC50 values for standard inhibitors were determined using non-linear regression curve-fitting within Activity Base data analysis template.

female gametocytes = assay: Female gametocyte functional viability assay; format: cell-based; settings: Plasmodium falciparum
CYP2C19 = CYP2C19 (Homo sapiens, UniProt P33261); assay: CYP inhibition; format: in vitro ADME; settings: read-out: CYP inhibition IC50, CYP 2C19
Microsomal stability [9] = format: in vitro ADME, human; settings: HLM, Test Conc. 10 µM
in vitro [10] = format: in vitro ADME; settings: human, plasma

hERG, sequence (Q12809 whole entry): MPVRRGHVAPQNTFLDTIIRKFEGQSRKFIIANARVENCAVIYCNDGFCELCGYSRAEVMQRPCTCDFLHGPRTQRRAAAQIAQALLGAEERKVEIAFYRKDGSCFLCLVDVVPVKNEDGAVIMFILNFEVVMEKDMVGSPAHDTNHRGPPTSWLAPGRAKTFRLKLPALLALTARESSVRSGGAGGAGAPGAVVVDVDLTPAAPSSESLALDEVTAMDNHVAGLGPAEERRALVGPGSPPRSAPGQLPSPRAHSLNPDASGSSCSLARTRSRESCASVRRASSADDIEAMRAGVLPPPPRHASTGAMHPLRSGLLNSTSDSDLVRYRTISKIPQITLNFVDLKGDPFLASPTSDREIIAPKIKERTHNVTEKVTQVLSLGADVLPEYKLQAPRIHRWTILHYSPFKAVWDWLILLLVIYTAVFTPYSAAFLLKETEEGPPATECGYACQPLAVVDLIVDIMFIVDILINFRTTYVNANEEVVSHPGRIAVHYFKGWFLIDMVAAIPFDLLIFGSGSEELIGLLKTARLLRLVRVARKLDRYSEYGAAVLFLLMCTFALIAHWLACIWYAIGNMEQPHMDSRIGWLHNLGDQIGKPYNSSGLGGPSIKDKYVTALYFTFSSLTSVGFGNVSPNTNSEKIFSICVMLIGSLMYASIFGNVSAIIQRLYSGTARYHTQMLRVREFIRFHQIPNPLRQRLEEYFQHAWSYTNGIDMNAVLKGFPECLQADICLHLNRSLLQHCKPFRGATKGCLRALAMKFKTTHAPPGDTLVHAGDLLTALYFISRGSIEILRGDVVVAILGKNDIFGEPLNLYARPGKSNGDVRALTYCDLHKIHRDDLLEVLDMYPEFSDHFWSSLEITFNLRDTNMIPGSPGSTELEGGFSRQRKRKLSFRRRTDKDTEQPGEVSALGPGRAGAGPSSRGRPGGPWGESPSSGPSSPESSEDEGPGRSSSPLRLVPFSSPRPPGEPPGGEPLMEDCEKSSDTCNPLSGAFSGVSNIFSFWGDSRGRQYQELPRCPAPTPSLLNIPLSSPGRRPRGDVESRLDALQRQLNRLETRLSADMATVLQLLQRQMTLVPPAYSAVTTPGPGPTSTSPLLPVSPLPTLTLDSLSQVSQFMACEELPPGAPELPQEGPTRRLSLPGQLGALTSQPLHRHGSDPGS
CYP 3A4, sequence (P08684 whole entry, species assumed): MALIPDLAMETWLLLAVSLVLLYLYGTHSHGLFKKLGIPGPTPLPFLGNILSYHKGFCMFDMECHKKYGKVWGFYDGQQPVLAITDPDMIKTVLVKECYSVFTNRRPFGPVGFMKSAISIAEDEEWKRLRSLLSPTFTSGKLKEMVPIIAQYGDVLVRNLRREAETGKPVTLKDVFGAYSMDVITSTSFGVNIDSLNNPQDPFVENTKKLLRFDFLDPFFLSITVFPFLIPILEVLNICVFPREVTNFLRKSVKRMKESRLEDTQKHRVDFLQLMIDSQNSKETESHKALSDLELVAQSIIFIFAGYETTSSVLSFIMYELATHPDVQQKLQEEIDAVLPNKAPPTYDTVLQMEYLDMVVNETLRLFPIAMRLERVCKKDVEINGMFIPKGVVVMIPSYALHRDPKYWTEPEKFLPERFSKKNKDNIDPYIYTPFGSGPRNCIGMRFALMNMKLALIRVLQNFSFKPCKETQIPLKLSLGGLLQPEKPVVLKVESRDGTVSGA
T1 sequence (Q7K6A1 1-449): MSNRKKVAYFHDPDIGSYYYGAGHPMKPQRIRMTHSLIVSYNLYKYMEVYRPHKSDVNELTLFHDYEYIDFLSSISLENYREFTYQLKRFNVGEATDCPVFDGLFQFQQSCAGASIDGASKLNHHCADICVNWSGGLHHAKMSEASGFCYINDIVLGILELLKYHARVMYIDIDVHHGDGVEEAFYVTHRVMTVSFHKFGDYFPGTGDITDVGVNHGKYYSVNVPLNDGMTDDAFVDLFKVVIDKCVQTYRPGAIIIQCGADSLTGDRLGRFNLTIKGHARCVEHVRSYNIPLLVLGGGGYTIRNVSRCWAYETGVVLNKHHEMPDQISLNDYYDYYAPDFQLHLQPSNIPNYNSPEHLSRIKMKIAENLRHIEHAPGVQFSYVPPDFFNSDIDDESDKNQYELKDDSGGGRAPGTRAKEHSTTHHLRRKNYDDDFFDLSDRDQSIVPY
CYP 2D6, sequence (P10635 whole entry, species assumed): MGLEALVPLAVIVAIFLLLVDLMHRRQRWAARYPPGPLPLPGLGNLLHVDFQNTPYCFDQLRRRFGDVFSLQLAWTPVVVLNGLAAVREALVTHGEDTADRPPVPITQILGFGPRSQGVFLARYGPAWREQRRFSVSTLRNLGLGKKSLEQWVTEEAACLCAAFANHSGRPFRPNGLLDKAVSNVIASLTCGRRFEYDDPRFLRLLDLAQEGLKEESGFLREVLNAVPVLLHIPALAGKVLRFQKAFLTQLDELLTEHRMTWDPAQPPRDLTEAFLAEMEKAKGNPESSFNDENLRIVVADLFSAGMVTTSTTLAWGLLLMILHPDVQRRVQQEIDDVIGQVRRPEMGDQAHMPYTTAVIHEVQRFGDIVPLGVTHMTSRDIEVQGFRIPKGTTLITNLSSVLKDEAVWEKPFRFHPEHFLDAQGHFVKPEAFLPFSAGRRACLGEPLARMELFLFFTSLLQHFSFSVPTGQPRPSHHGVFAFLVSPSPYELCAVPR
CYP2C19, sequence (P33261 whole entry, species assumed): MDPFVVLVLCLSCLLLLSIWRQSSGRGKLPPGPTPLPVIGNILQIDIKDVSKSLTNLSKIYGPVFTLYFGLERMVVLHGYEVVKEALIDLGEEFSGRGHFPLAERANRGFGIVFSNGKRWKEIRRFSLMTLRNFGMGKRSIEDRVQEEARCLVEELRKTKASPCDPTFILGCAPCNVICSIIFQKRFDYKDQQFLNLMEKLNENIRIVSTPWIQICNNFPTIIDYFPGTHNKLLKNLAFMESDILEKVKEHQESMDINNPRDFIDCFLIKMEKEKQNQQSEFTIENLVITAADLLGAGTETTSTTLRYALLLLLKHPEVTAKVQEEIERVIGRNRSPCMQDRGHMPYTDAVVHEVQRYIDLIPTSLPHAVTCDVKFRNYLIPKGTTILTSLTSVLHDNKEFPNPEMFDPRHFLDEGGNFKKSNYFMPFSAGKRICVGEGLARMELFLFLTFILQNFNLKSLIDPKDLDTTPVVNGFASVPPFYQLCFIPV

O=C(NO)c1ccc(Cn2cc(-c3ccc(CN4CCCC4)cc3)nn2)cc1 [FNDR-20123]
IC50 (CYP 2D6): 28000 nM
Reduction of parasitaemia ([1]; dosed orally and subcutaneously): reduce parasitaemia significantly
Parasitaemia after 4 days of administration ([1]; 50 mg/kg bw): 0.12%
Parasitaemia after 4 days of administration ([1]; 100 mg/kg bw): 0.19%
Parasitaemia ([1]; 10 mg/kg bw for 4 days): 6.5%
Parasitaemia ([1]; 50 mg/kg bw for 4 days): 2.57%
IC50 (PfHDAC1): 31 nM
Microsomal stability (% remaining at 120 min) (Microsomal stability [2]): 76.15%
remaining at 2 h, 10 µM (Microsomal stability [2]; mouse, liver microsomes, read-out: Microsomal stability (% remaining at 120 min)): > 75%
IC50 (hERG): > 100000 nM
Cytotoxicity to HepG-2 cell line (HepG2): negligible cytotoxicity
Cytotoxicity HepG2 (% @ 100 µM) (HepG2; 100 µM): 12.6%
remaining at 4 h (in vitro [3]): 89.2%
IC50 [4]: 20.9 nM
IC50 [5]: > 25000 nM
AUC(0-t) [6]: 1340 ng·h/mL
Cmax [6]: 460 ng/mL
Tmax [6]: 1 h
half-life ([7]; im, intramuscular): 8.72 h
half-life ([7]; po): 2 h
half-life ([7]; sc, subcutaneous): 9.21 h
AUC(0-t) ([7]; im, intramuscular, 50 mg/Kg): 7220 ng·h/mL
Cmax ([7]; im, intramuscular, 50 mg/Kg): 15700 ng/mL
Tmax ([7]; im, intramuscular, 50 mg/Kg): 0.08 h
AUC(0-t) ([7]; sc, subcutaneous, 50 mg/Kg): 11000 ng·h/mL
Cmax ([7]; sc, subcutaneous, 50 mg/Kg): 14000 ng/mL
Tmax ([7]; sc, subcutaneous, 50 mg/Kg): 0.08 h
AUC(0-t) ([7]; oral, 50 mg/Kg): 327 ng·h/mL
Cmax ([7]; oral, 50 mg/Kg): 184 ng/mL
Tmax ([7]; oral, 50 mg/Kg): 1 h
t1/2 ([7]; oral, 50 mg/Kg): 2.02 h
IC50 (CYP 3A4): 27000 nM
IC50 ([8]; read-out: Anti-malarial IC50): 40 nM
IC50 ([8]; read-out: Anti-malarial activity Asexual Blood Stage IC50): 42 nM
IC50 (female gametocytes): > 5000 nM
IC50 (CYP2C19): > 60000 nM
Microsomal stability (% remaining at 120 min) (Microsomal stability [9]): 85.31%
remaining at 2 h, 10 µM (Microsomal stability [9]; human, liver microsomes, read-out: Microsomal stability (% remaining at 120 min)): > 75%
remaining at 4 h (in vitro [10]): 98.9%
